One may read the LD50 as the dose expected to kill half of the subjects tested. One may read the IC50 as the point on the concentration scale where inhibition reaches its midpoint. In general, MIC refers to the smallest concentration in the dilution series that meets the test's criterion for growth inhibition.

The text below walks through data of ChEMBL document CHEMBL5550142, “From lab to nature: Recent advancements in the journey of gastroprotective agents from medicinal chemistry to phytotherapy” (Eur J Med Chem, 2024).

In brackets after ≈: the same amount, converted by molar mass.

Data set [1] can be described thus: Acute toxicity in po dosed mouse assessed as lethal dose. It counts as organism-based. The following applies: in vivo.
Data set [2] deals with T1, Polyunsaturated fatty acid lipoxygenase ALOX15 (Homo sapiens, UniProt P16050).
T1 sequence (P16050 whole entry): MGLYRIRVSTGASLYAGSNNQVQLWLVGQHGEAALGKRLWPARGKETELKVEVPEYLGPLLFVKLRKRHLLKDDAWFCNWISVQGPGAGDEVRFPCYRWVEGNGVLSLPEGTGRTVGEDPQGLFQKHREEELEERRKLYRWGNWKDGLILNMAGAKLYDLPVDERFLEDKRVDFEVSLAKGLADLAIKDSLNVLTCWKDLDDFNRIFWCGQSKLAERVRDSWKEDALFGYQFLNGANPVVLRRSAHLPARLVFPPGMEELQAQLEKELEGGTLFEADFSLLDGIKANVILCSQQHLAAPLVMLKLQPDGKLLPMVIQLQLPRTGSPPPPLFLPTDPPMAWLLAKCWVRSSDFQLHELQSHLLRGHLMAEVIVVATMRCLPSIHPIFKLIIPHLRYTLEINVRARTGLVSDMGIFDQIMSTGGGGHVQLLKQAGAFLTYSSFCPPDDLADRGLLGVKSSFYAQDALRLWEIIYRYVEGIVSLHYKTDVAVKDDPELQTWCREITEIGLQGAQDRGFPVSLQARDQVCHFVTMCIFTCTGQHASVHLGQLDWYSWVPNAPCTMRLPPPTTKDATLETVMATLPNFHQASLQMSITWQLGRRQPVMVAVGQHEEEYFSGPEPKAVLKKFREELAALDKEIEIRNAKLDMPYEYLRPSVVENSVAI
The experiment in a line: Inhibition of 15-LOX (unknown origin).

The nature of data set [3]: Inhibition of Hydrogen potassium ATPase (unknown origin). More on the design: species or system Homo sapiens.
Data set [4] has as its system Rattus norvegicus. The data set is described as follows: Protection against stress-induced Wistar rat model assessed as inhibition of gastric lesion at 500 ug/kg, po measured after 6 hrs relative to control. Also noted: scale not given: the % may be the effect or the level left. Type of data set: functional.
Data set [5] deals with Rattus norvegicus. The experiment in a line: Gastric ulcerogenic activity in ethanol-induced rat model assessed as reduction in mucosal damage at 50 mg/kg, po relative to control. Type of data set: functional. Also noted: scale not given: the % may be the effect or the level left.
For data set [6], the target named is T2, Gastrin/cholecystokinin type B receptor (Homo sapiens, UniProt P32239).
T2 sequence (P32239 whole entry): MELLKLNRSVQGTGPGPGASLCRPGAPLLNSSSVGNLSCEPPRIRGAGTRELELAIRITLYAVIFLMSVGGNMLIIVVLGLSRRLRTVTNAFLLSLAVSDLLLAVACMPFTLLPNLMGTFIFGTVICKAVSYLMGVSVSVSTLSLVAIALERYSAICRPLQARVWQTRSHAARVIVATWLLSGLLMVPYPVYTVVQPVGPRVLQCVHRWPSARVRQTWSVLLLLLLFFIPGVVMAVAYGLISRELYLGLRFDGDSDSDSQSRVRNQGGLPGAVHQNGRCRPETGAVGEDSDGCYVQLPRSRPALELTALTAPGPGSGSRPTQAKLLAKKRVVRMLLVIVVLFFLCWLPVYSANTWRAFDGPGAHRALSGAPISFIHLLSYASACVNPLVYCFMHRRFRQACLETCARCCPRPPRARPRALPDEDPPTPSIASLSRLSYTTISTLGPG
The experiment in a line: Antagonist activity at human CCKBR. Type of data set: functional.

A further data set relates to Mus musculus. The experiment in a line: Anti-ulcerogenic activity in ethanol-induced gastric ulcer mouse model assessed as reduction in ulcer formation at 350 mg/kg. It counts as functional. Also noted: scale not given: the % may be the effect or the level left.
The test system of data set [7] is Helicobacter pylori. The experiment in a line: Antibacterial activity against Helicobacter pylori ATCC 43504 assessed as reduction in bacterial growth incubated for 24 hrs by broth micro-dilution method. Type of data set: functional.
Data set [8] deals with Helicobacter pylori. The experiment in a line: Antibacterial activity against Helicobacter pylori NCTC 11637 assessed as reduction in bacterial growth incubated for 24 hrs by broth micro-dilution method. It counts as functional.
Data set [9] relates to Rattus norvegicus. The data set is described as follows: Gastric ulcerogenic activity in ethanol-induced rat model assessed as reduction in gastric lesion at 10 mg/kg, po relative to control. More on the design: scale not given: the % may be the effect or the level left. Type of data set: functional.
Data set [10] deals with Rattus norvegicus. The data set is described as follows: Gastric ulcerogenic activity in ethanol-induced rat model assessed as reduction in gastric lesion at 5 mg/kg, po relative to control. More on the design: scale not given: the % may be the effect or the level left. It counts as functional.

Consider `COc1cc(/C=N/NC(=O)Cc2ccccc2Nc2c(Cl)cccc2Cl)cc(OC)c1O`, for which, in data set [1], the LD50 stood at 168 mg/kg.

Turning to `Clc1ccc(-c2cc(-c3ccco3)no2)c(Cl)c1`, the figures for the IC50 in data set [2] and in data set [3] were 8.15 µM and 42.41 µg/mL (≈ 151 µM), respectively.

For `O=C(CSc1nc2ccccc2[nH]1)n1nc(Nc2ccc(O)cc2)cc1-c1ccccc1`, the Activity with Rattus norvegicus [4] stood at 83.1%.

`CCCc1ccc([C@H]2N[C@@H](C(=O)OC)Cc3c2[nH]c2ccccc32)cc1`: the Activity with Rattus norvegicus [5] and in the data set with Mus musculus was 81.2% in each case. This compound returned an IC50 in data set [6] of 31.9 µM.

`C=CCS[S+]([O-])CC=C` (stereo unspecified) [ALLICIN]: the MIC with Helicobacter pylori [7] amounted to 6 µg/mL (≈ 37 µM); in the data set on Helicobacter pylori [8], 4 µg/mL (≈ 24.6 µM).

On to `CCc1c(O)c(O)c2c(c1O)C(=O)C(O)=C(O)C2=O`, for which the results for the Activity with Rattus norvegicus [9] and in the data set on Rattus norvegicus [10] were 75.5% and 73.51%, respectively.
